# In patent US7026488B2, “Antitumor agents and process for producing the same” (priority 2001, dated 2006):
# “Also recorded” adds a separate entry of the source.
# Assays:
# tumor = details: administered into the tumor feeding artery, oily formulation; K. Doi et al. 1999; cited from earlier work
# Solubility in water = type: physicochemical; details: for i.v. injection
# [1] = biological target: T1, purified heme oxygenase fraction derived from rat spleen (Rattus norvegicus, UniProt P06762); assay: Inhibitory activity against heme oxygenase (bilirubin formation, Lineweaver-Burk plot); type: biochemical
# T1 construct: purified heme oxygenase fraction derived from rat spleen; from tissue; host or cells: rat spleen
# T1 sequence (P06762 1-289): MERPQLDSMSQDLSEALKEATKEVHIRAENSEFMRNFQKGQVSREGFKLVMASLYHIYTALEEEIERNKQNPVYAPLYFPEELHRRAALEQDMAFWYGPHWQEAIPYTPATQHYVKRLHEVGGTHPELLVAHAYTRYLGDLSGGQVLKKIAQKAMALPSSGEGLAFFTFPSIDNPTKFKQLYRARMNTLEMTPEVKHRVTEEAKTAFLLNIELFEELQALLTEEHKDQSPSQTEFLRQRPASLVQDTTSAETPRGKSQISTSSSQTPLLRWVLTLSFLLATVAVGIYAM
# Procedure: This was examined using purified heme oxygenase fraction derived from rat spleen. It was assayed at 37° C. in the presence of hemin, the substrate of heme oxygenase, cofactor (NADPH, […]), and cytosolic fraction containing bilirubin reductase, in which biliverdin formed by the oxygenase is converted to bilirubin.
# Bilirubin was extracted with chloroform and quantified by absorption at 465 nm. By the addition of either PEG-ZnPP, or unmodified ZnPP, or no inhibitor, their effect on heme oxidase was examined, and the Lineweaver-Burk plot of heme oxygenase activity was plotted during the inhibition by PEG-ZnPP. […] Mode of inhibition was competitive, and the value was equivalent to that of unmodified ZnPP.
# [2] = system: Lung adenocarcinoma cell line A549 cells; assay: Oxidative stress in cultured tumor cells (DCDHF fluorescence, flow cytometry); type: cell-based; details: 5 μM and 10 μM, 8 hrs, compared with no drug, FIG. 3
# Procedure: Lung adenocarcinoma cell line A549 cells were plated in plastic dish and after overnight culture, 5 μM and 10 μM of PEG-ZnPP dissolved in distilled water were added to the culture dishes. Then, 8 hrs after cultivation at 37° C., a reagent that quantifies oxidative stress, called dichlorodihydrofluorescein diacetyl ester (DCDHF) was added and allowing cell culture for 30 minutes. Under oxidative stress, this DCDHF will be become oxidized and will fluoresce due to oxystress was generated by formation of fluorescein in cells.
# Quantification of fluorescence intensity represents the extent of oxidative stress induced in the cells. Then, cultured cells were trypsinized and recovered cells were subjected to the flow cytometrory analysis and fluorescence cell population was quantified. The results are shown in FIG. 3, where the effect of PEG-ZnPP at 5 μM, 10 μM, is compared with that of no drug.
# [3] = system: heme oxygenase in S 180 sarcoma tumor tissue; assay: Inhibition of heme oxygenase in solid tumor model in mouse; type: in vivo; details: ddY mice, S 180 tumor
# Procedure: In male ddY mice with mean body weight of 35 g, S 180 sarcoma cells were implanted in the dorsal skin, and when solid tumor size become 5 mm in cross diameter after about one week, PEG-ZnPP dissolved in distilled water were injected via tail vein (i.v.) at 0.5 mg ZnPP equivalent per Kg body weight. The solid tumors were removed after 24 hr, and heme oxygenase activity was quantified similarly as described in Example 1. Control mouse received distilled water without PEG-ZnPP. The tumor specimens were obtained and treated similarly.
# [4] = Change of body weight in mice bearing solid tumor; type: in vivo, mouse; details: ddY mice bearing S180, during or after i.v. administration, FIG. 5
# Procedure: (§1) Similar to Experiment 3 above, sarcoma S180 of mice implanted under the dosal skin of ddY mice, and after 10, 13 and 15 days after tumor implantation, PEG-ZnPP at 30 n mole, 30 n mole and 50 n mole (3 times only), respectively, was injected into the tail vein respectively (see also arrow marks in FIG. 4). Control mice received distilled water instead of PEG-ZnPP.
# sarcoma S180 = assay: Antitumor effect in mice bearing solid tumor; type: in vivo, mouse; details: ddY mice, i.v. 30, 30 and 50 n mole on days 10, 13 and 15 after implantation, FIG. 4
# Procedure: as §1
Molecule,Antitumor effect in rats (tumor),Solubility in water (Solubility in water),Solubility in water (Solubility in water; listed as Unmodified ZnPP),"Ki ([1]; 37° C., hemin substrate, NADPH, cytosolic fraction with bilirubin reductase, read-out: inhibitory constant (Ki) against heme oxygenase)",Inhibition of heme oxygenase (in words) ([1]; FIG. 2),"Mode of inhibition of heme oxygenase ([1]; Lineweaver-Burk plot, FIG. 2)",intracellular oxidative state (DCDHF fluorescence) [2],"Activity of heme oxygenase in tumor tissue ([3]; i.v. tail vein 0.5 mg ZnPP equivalent per Kg, tumor removed after 24 hr, control 4.17 ± 1.07 (P < 0.02))","Effect on intratumor heme oxygenase activity (in words) ([3]; i.v. tail vein, 24 hr)",Body weight change [4],Tumor growth (tumor size) compared with control group (sarcoma S180)
"C=CC1=C(C)c2cc3[n-]c(cc4nc(cc5[n-]c(cc1n2)c(C)c5C=C)C(C)=C4CCC(=O)O)c(CCC(=O)O)c3C.[Zn+2] [ZnPP, zinc protoporphyrin]",confirmed antitumor effect in rats,almost insoluble in water,could not be administered i.v. because of its difficulty in solubility; also recorded: Impossible to solubilize,,,,,,,,
Polyethylene Glycol Conjugated ZnPP [PEG-ZnPP],,,,130 nM,inhibits the heme oxygenase in a dose dependent manner,competitive,higher intracellular oxidative state in the dose dependent manner,2.30 ± 0.54 n mol bilirubin/mg protein/hr,significant reduction of the heme oxygenase activity,no remarkable body weight loss,remarkable suppression of tumor growth
